Results published in patent publication US9481654B2, “Compositions and methods for inhibition of the JAK pathway” (Rigel Pharmaceuticals, Inc., priority 2006, dated 2016).

What was measured:
Type in all cases: cell-based
[1] = system: IL-4 stimulated CD23 upregulation in human Ramos B cells (JAK-1/JAK-3, Stat-6); test: Assay for Ramos B-Cell Line Stimulated with IL-4 (CD23 upregulation, FACS); conditions: Table III Example 3
In short: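 Flow cytometry of CD23 staining after 20-24 h IL-4 stimulation (50 units/mL final) of human Ramos B cells in RPMI with 5% serum. Cells, 5×10^4 per point, received compound or DMSO vehicle for 1 h at 37° C prior to stimulation.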

[2] = system: primary human T-cells (IL-2 induced proliferation, JAK-1/JAK-3, Stat-5); test: Primary Human T-Cell Proliferation Assay Stimulated with IL-2 (CellTiter-Glo); conditions: Table III Example 4
Description: In this assay, primary human T-cells derived from peripheral blood and pre-activated through stimulation of the T-cell receptor and CD28, proliferate in culture in response to the cytokine Interleukin-2 (IL-2). This proliferative response is dependent on the activation of JAK1 and JAK3 tyrosine kinases, which phosphorylate and activate the transcription factor Stat-5. The primary human T-cells are incubated with the 2,4-pyrimidinediamine compounds in the presence of IL-2 for 72 hours, and at the assay endpoint intracellular ATP concentrations are measured to assess cell viability. A reduction in cell proliferation compared to control conditions is indicative of inhibition of the JAK kinase pathway.
Primary human T-cells derived from peripheral blood and pre-activated through stimulation of the T-cell receptor and CD28 proliferate in vitro in response to the cytokine Interleukin-2 (IL-2). This proliferative response is dependent on the activation of JAK-1 and JAK-3 tyrosine kinases, which phosphorylate and activate the transcription factor Stat-5.
Human primary T cells were prepared as follows. […] The lymphocytes at the serum: ficoll interface were recovered and washed twice with 5 volumes of PBS. […] The primary T-cells were stimulated for 3 to 4 days, then transferred to a fresh flask and maintained in RPMI with 10% FBS and 40 U/mL IL-2.
Primary T-cells were washed twice with PBS to remove the IL-2 and resuspended in Yssel's medium at 2×10^6 cells/mL. 50 μL of cell suspension containing 80 U/mL IL-2 was added to each well of a flat bottom 96 well black plate. For the unstimulated control, IL-2 was omitted from the last column on the plate. […] 50 μL of 2× compound was added per well in duplicate and the cells were allowed to proliferate for 72 hours at 37° C.
Proliferation was measured using CellTiter-Glo® Luminescent Cell Viability Assay (Promega), which determines the number of viable cells in culture based on quantitation of the ATP present, as an indicator of metabolically active cells. The substrate was thawed and allowed to come to room temperature. After mixing the Cell Titer-Glo reagent and diluent together, 100 μL was added to each well. The plates were mixed on an orbital shaker for two minutes to induce lysis and incubated at room temperature for an additional ten minutes to allow the signal to equilibrate.

[3] = system: IFNγ induced ICAM-1 (CD54) up-regulation in U937 human monocytic cells (JAK/Stat pathway); test: U937 IFNγ ICAM1 FACS Assay; conditions: Table III Example 6; 10 ng/mL IFNγ, 18-24 hours
Source text: A549 lung epithelial cells and U937 cells up-regulate ICAM-1 (CD54) surface expression in response to a variety of different stimuli. Therefore, using ICAM-1 expression as readout, test compound effects on different signaling pathways can be assessed in the same cell type. Stimulation with IL-1β through the IL-1β receptor activates the TRAF6/NFκB pathway resulting in up-regulation of ICAM-1. IFNγ induces ICAM-1 up-regulation through activation of the JAK1/JAK2 pathway. The up-regulation of ICAM-1 can be quantified by flow cytometry across a compound dose curve and EC50 values are calculated. Exemplary assays of this type are described in greater detail in Examples 5 and 6. U937 human monocytic cells up-regulate ICAM-1 (CD54) surface expression in response to a variety of different stimuli. Therefore, using ICAM-1 expression as readout, compound effects on different signaling pathways can be assessed in the same cell type. IFNγ up-regulates ICAM-1 through activation of the JAK/Stat pathway. In this example, the up-regulation of ICAM-1 by IFNγ was assessed. […] The cells were then plated at a concentration of 100,000 cells per 160 μL in 96 well flat bottom plates. The test compounds were then diluted as follows: 10 mM test compound was diluted 1:5 in DMSO (3 μL 10 mM test compound in 12 μL DMSO), followed by a 1:3 serial dilution of test compound in DMSO (6 μL test compound serially diluted into 12 μL DMSO to give 3-fold dilutions). […] For control wells, 4 μL of DMSO was diluted into 76 μL 10% RPMI. […] The cells and compounds were then pre-incubated for 30 minutes at 37° C. with 5% CO2. […] The cells were kept under conditions for stimulation for 18-24 hours at 37° C. with 5% CO2. […] Cells were spun down at 1000 rpm for 5 minutes at 4° C., following which the supernatant was removed. […] The cells were then incubated on ice in the dark for 30 minutes. […] After suspension, the cells were centrifuged at 1000 rpm for 5 min at 4° C. […] Detection was performed using a BD LSR I System Flow Cytometer, purchased from BD Biosciences of San Jose, Calif. The live cells were gated for live scatter and the geometric mean of ICAM-APC was measured (Becton-Dickinson CellQuest software version 3.3, Franklin Lakes, N.J.). Both % live cells and ICAM-1 expression was analyzed. The assays for the test compounds were carried out in parallel with a control compound of known activity.

CCS(=O)(=O)NCc1ccc(Nc2nc(Nc3cccc(S(N)(=O)=O)c3)ncc2F)cc1 [Compound I-9, N2-(3-aminosulfonyl)phenyl-N4-(4-ethylsulfonylaminomethyl)phenyl-5-fluoro-2,4-pyrimidinediamine]
IC50 [1]: 80.1 nM | IC50 [2]: 70.2 nM | IC50 [3]: 993 nM

NS(=O)(=O)c1cccc(Nc2ncc(F)c(Nc3ccc(CNS(=O)(=O)c4cccs4)cc3)n2)c1 [Compound I-36, N2-(3-aminosulfonyl)phenyl-5-fluoro-N4-[4-(thiophen-2-yl)sulfonylaminomethyl]phenyl-2,4-pyrimidinediamine]
IC50 [1]: 40.8 nM | IC50 [2]: 63.9 nM | IC50 [3]: 326 nM

CCS(=O)(=O)NCc1ccc(Nc2nc(Nc3ccc(S(N)(=O)=O)cc3)ncc2F)cc1 [Compound I-8, N2-(4-aminosulfonyl)phenyl-N4-(4-ethylsulfonylaminomethyl)phenyl-5-fluoro-2,4-pyrimidinediamine]
IC50 [1]: 235 nM | IC50 [2]: 275 nM | IC50 [3]: 3250 nM

COCCCNS(=O)(=O)c1cc(Nc2ncc(C)c(Nc3cccc(CNS(=O)(=O)C4CC4)c3)n2)ccc1C [Compound I-217, N4-(3-cyclopropylsulfonylaminomethyl)phenyl-N2-[3-(3-methoxypropyl)aminosulfonyl-4-methyl]phenyl-5-methyl-2,4-pyrimidinediamine]
IC50 [1]: 80.2 nM | IC50 [2]: 129 nM | IC50 [3]: 496 nM

CCS(=O)(=O)NCc1cccc(Nc2nc(Nc3ccc(S(N)(=O)=O)cc3)ncc2F)c1 [Compound I-11, N2-(4-aminosulfonyl)phenyl-N4-(3-ethylsulfonylaminomethyl)phenyl-5-fluoro-2,4-pyrimidinediamine]
IC50 [1]: 250 nM | IC50 [2]: 588 nM | IC50 [3]: 2790 nM

CCCN(Cc1ccc(Nc2nc(Nc3ccc(S(N)(=O)=O)cc3)ncc2C)cc1)S(=O)(=O)C1CC1 [Compound I-79, N2-(4-aminosulfonyl)phenyl-N4-[4-(N-cyclopropylsulfonyl-N-propylamino)methyl]phenyl-5-methyl-2,4-pyrimidinediamine]
IC50 [1]: 98 nM | IC50 [2]: 92.3 nM | IC50 [3]: 345 nM

Cc1cnc(Nc2cccc(S(=O)(=O)NCc3ccncc3)c2)nc1Nc1ccc(CNS(=O)(=O)C2CC2)cc1 [Compound I-169, N4-(4-cyclopropylsulfonylaminomethyl)phenyl-5-methyl-N2-[3-(4-pyridylmethyl)aminosulfonyl]phenyl-2,4-pyrimidinediamine]
IC50 [1]: 140 nM | IC50 [2]: 206 nM | IC50 [3]: 478 nM

CCS(=O)(=O)NCc1ccc(Nc2nc(Nc3ccc(C)c(S(N)(=O)=O)c3)ncc2C)cc1 [Compound I-22, N2-(3-aminosulfonyl-4-methyl)phenyl-N4-(4-ethylsulfonylaminomethyl)phenyl-5-methyl-2,4-pyrimidinediamine]
IC50 [1]: 25.9 nM | IC50 [2]: 82.2 nM | IC50 [3]: 207 nM

C#CCNS(=O)(=O)c1cc(Nc2ncc(C)c(Nc3cccc(CNS(=O)(=O)C4CC4)c3)n2)ccc1C [Compound I-214, N4-(3-cyclopropylsulfonylaminomethyl)phenyl-5-methyl-N2-(4-methyl-3-propargylaminosulfonyl)phenyl-2,4-pyrimidinediamine]
IC50 [1]: 162 nM | IC50 [2]: 136 nM | IC50 [3]: 190 nM

CCS(=O)(=O)N[C@@H](C)c1ccc(Nc2nc(Nc3ccc(C)c(S(N)(=O)=O)c3)ncc2F)cc1 [Compound I-28, N2-(3-aminosulfonyl-4-methyl)phenyl-N4-[4-(1S-ethylsulfonylamino)ethyl]phenyl-5-fluoro-2,4-pyrimidinediamine]
IC50 [1]: 115 nM | IC50 [2]: 376 nM | IC50 [3]: 1110 nM

CCS(=O)(=O)NCCc1ccc(Nc2nc(Nc3ccc(S(N)(=O)=O)cc3)ncc2F)cc1 [Compound I-14, N2-(4-aminosulfonyl)phenyl-N4-[4-(2-ethylsulfonylamino)ethyl]phenyl-5-fluoro-2,4-pyrimidinediamine]
IC50 [1]: 144 nM | IC50 [2]: 835 nM | IC50 [3]: 5270 nM

CCC(=O)NS(=O)(=O)c1ccc(Nc2ncc(C)c(Nc3ccc(CNS(=O)(=O)C4CC4)cc3)n2)cc1 [Compound I-83, N4-(4-cyclopropylsulfonylaminomethyl)phenyl-5-methyl-N2-(4-propionylaminosulfonyl)phenyl-2,4-pyrimidinediamine]
IC50 [1]: 181 nM | IC50 [2]: 152 nM | IC50 [3]: 266 nM

Cc1cnc(Nc2ccc(S(=O)(=O)NC(C)C)cc2)nc1Nc1ccc(CNS(=O)(=O)C2CC2)cc1 [Compound I-172, N4-(4-cyclopropylsulfonylaminomethyl)phenyl-N2-(4-isopropylaminosulfonyl)phenyl-5-methyl-2,4-pyrimidinediamine]
IC50 [1]: 52.1 nM | IC50 [2]: 81 nM | IC50 [3]: 123 nM

Cc1cnc(Nc2cccc(S(N)(=O)=O)c2)nc1Nc1ccc(CNS(=O)(=O)c2cccnc2)cc1 [Compound I-100, N2-(3-aminosulfonyl)phenyl-5-methyl-N4-[4-(pyrid-3-yl)sulfonylaminomethyl]phenyl-2,4-pyrimidinediamine]
IC50 [1]: 102 nM | IC50 [2]: 153 nM | IC50 [3]: 489 nM

Cc1cnc(Nc2ccc(S(=O)(=O)NC3CCCC3)cc2)nc1Nc1ccc(CNS(=O)(=O)C2CC2)cc1 [Compound I-166, N2-(4-cyclopentylaminosulfonyl)phenyl-N4-(4-cyclopropylsulfonylaminomethyl)phenyl-5-methyl-2,4-pyrimidinediamine]
IC50 [1]: 82.5 nM | IC50 [2]: 212 nM | IC50 [3]: 280 nM

NS(=O)(=O)c1cccc(Nc2ncc(F)c(Nc3cccc(CNS(=O)(=O)C4CC4)c3)n2)c1 [Compound I-33, N2-(3-aminosulfonyl)phenyl-N4-(3-cyclopropylsulfonylaminomethyl)phenyl-5-fluoro-2,4-pyrimidinediamine]
IC50 [1]: 102 nM | IC50 [2]: 314 nM | IC50 [3]: 1410 nM

CNS(=O)(=O)c1cc(Nc2ncc(C)c(Nc3cccc(CNS(=O)(=O)C4CC4)c3)n2)ccc1C [Compound I-211, N4-(3-cyclopropylsulfonylaminomethyl)phenyl-5-methyl-N2-(4-methyl-3-methylaminosulfonyl)phenyl-2,4-pyrimidinediamine]
IC50 [1]: 103 nM | IC50 [2]: 48.2 nM | IC50 [3]: 177 nM

NS(=O)(=O)c1ccc(Nc2ncc(F)c(Nc3ccc(CNS(=O)(=O)C4CC4)cc3)n2)cc1 [Compound I-23, N2-(4-aminosulfonyl)phenyl-N4-(4-cyclopropylsulfonylaminomethyl)phenyl-5-fluoro-2,4-pyrimidinediamine]
IC50 [1]: 126 nM | IC50 [2]: 198 nM | IC50 [3]: 3850 nM
